What is called pIC50 is the negative decadic logarithm of the IC50, by convention in mol/L. Read a low pIC50 as a large IC50. As usually defined, the half-life is the time needed for the level to fall by half in the phase considered. Read a high half-life as slow decline.

SMILES strings stand for the structures. pIC50: −log10 of the molar value. Counter-ions that a name gives are not always drawn.

Series [1] addresses T1, rabbit erythrocyte Na^+ /H^+ exchanger (Oryctolagus cuniculus, UniProt P23791).
T1 construct: determine the Na+influx into the erythrocytes by way of Na^+ /H^+ exchange; endogenous in cells; host or cells: intact erythrocytes in heparinised blood of cholesterol-fed New Zealand White rabbits
The experiment in a line: Inhibition of the rabbit erythrocyte Na^+ /H^+ exchanger (amiloride-sensitive sodium influx, flame photometry). The following applies: rabbit erythrocytes, cholesterol-fed, 37° C., pH 7.4. The series is classed as cell-based, rabbit (New Zealand White). An excerpt:
Inhibition of the rabbit erythrocyte Na^+ /H^+ exchanger
New Zealand White rabbits (Ivanovas) were given a standard diet containing 2% cholesterol for six weeks in order to activate Na^+ /H^+ exchange and thereby making it possible to use flame photometry to determine the Na+influx into the erythrocytes by way of Na^+ /H^+ exchange. The blood was withdrawn from the aural arteries and rendered incoagulable by adding 25 IU of potassium heparin. A part of each sample was used for determining the hematocrit in duplicate by means of centrifugation. Aliquots of in each case 100 μl were used for measuring the initial content of Na^+ in the erythrocytes.
In order to determine the amiloride-sensitive sodium influx, 100 μl of each blood sample were in each case incubated, at 37° C. and pH 7.4, in 5 ml of a hyper osmolar salt/sucrose medium (mmol/l: 140 NaCl, 3 KCL, 150 sucrose, 0.1 ouabain, 20 tris(hydroxymethyl)aminomethane). After that, the erythrocytes were washed three times with an ice-cold MgCl2 /ouabain solution (mmol/l: 112 MgCl2, 0.1 ouabain) and hemolyzed in 2.0 ml of distilled water. The intracellular content of sodium was determined by flame photometry.
The net Na^+ influx was calculated from the difference between the initial sodium values and the sodium content of the erythrocytes after incubation. The amiloride-inhibitable sodium influx was obtained from the difference in the sodium content of the erythrocytes after incubating them with and without […] amiloride. This procedure was also used in the case of the novel compounds.

Series [2] is described as follows: Plasma elimination half life, rat, i.v. The series is classed as in vivo. The settings on record: iv.
Series [3] can be described thus: Plasma elimination half life, dog, i.v. The series is classed as in vivo. The following applies: iv.
Series [4] can be described thus: Intraduodenal bioavailability. The series is classed as in vivo.

T1 sequence (P23791 whole entry): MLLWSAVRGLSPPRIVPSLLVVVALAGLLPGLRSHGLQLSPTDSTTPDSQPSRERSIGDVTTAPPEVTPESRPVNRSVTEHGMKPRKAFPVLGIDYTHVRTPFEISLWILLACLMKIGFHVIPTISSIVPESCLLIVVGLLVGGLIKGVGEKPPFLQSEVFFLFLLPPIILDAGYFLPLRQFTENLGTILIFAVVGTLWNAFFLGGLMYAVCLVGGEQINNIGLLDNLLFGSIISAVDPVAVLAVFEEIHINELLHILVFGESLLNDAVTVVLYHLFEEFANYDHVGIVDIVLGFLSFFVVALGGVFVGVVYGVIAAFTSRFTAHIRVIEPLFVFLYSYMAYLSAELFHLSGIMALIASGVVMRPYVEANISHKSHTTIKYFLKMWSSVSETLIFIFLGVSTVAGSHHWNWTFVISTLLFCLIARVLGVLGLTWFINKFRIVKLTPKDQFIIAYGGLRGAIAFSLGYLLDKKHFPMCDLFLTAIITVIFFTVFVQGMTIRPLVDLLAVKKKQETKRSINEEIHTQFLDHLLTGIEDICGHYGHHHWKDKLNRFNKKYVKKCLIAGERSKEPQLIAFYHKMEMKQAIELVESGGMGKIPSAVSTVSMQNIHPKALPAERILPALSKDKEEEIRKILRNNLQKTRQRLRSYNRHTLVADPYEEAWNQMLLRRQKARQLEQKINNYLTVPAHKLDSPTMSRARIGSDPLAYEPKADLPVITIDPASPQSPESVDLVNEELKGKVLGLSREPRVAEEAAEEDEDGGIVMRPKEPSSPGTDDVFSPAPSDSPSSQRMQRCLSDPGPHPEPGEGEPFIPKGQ

In series [1], `NC(N)=NC(=O)c1cc(C(F)(F)F)cc(I)c1Cl` [Example 2, 2-Chloro-3-iodo-5-trifluoromethylbenzoylguanidine hydrochloride] showed a negative-log IC50 (pIC50) of 7.30.

`CCCc1cc(C(F)(F)F)cc(C(=O)N=C(N)N)c1Cl` [Example 4, 2-Chloro-3-n-propyl-5-trifluoromethylbenzoylguanidine hydrochloride] showed a negative-log IC50 (pIC50) in series [1] of 7.15.

With `COc1cc(Cl)c(C(=O)N=C(N)N)cc1C(F)(F)F` [Example 1, 2-Chloro4-methoxy-5-trifluoromethylbenzoylguanidine hydrochloride], the half-life was 19.2 min in series [2] and 66 min in series [3]. In series [4], the Intraduodenal bioavailability entry is “good”. Further, the pIC50 in series [1] is 7.70.

Turning to `NC(N)=NC(=O)c1cc(C(F)(F)F)c(C2CCCC2)cc1Cl` [Example 7, 2-Chloro4-cyclopentyl-5-trifluoromethylbenzoylguanidine hydrochloride], in series [1], the negative-log IC50 (pIC50) was 7.52.

In series [2], `CC(C)c1cc(C(F)(F)F)cc(C(=O)N=C(N)N)c1Cl` [Example 5, 2-Chloro-3-isopropyl-5-trifluoromethylbenzoylguanidine hydrochloride] had a half-life of 42 min. Besides, the Intraduodenal bioavailability entry in series [4] is on record as “good”. Further, the negative logarithm of the IC50 (pIC50) in series [1] is 7.70.

The compound `NC(N)=NC(=O)c1cc(C(F)(F)F)cc(C2CCCC2)c1Cl` [Example 6, 2-Chloro-3-cyclopentyl-5-trifluoromethylbenzoylguanidine hydrochloride] gave a pIC50 in series [1] of 7.22.

`CCCc1cc(Cl)c(C(=O)N=C(N)N)cc1C(F)(F)F` [Example 8, 2-Chloro4-n-propyl-5-trifluoromethylbenzoylguanidine hydrochloride] showed a negative-log IC50 (pIC50) in series [1] of 8.00.

The values above are taken from patent US5856574A, “Ortho-subsituted benzoylguanidines, process for their preparation, their use as a medicament or diagnostic, and medicament containing them” (Hoechst Aktiengesellschaft, priority 1996, dated 1999).
